Laboratory results: PubChem BioAssay AID248 (DTP/NCI, 2004)
“And” between values parts separate entries of the source, which are not always exact repeats. Equal values may be shown once. Inconclusive results and toxic doses are left out. No stated cut-off is given here; in the data, active means T/C of 150% or more; inactive means T/C below 125%.

System: L1210 leukemia ip in BDF1 mice, survival T/C
Test: NCI In Vivo Anticancer Drug Screen. Data for tumor model L1210 Leukemia (intraperitoneal) in B6D2F1 (BDF1) mice
Conditions: endpoint: mean survival time, higher = longer survival
Method in brief: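 In this screen, tumor-bearing mice given compound are compared to those given vehicle, and their survival values are reported as a treated-to-control quotient.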

[1] = dose: 15.0 mg/kg/injection, schedule: Q01DX Z (ip), vehicle: methylcellulose (MC)
[2] = dose: 100.0 mg/kg/injection, schedule: Q04DX003 (ip), vehicle: Klucel (hydroxypropylcellulose) (HPC)
[3] = dose: 200.0 mg/kg/injection, schedule: Q04DX003 (ip), vehicle: Klucel (hydroxypropylcellulose) (HPC)
[4] = dose: 400.0 mg/kg/injection, schedule: Q04DX003 (ip), vehicle: Klucel (hydroxypropylcellulose) (HPC)
[5] = dose: 100.0 mg/kg/injection, schedule: Q01DX009 (ip), vehicle: saline with Tween-80
[6] = dose: 200.0 mg/kg/injection, schedule: Q01DX009 (ip), vehicle: saline with Tween-80
[7] = dose: 100.0 mg/kg/injection, schedule: Q01DX001 (ip), vehicle: saline
[8] = dose: 200.0 mg/kg/injection, schedule: Q01DX001 (ip), vehicle: saline
[9] = dose: 400.0 mg/kg/injection, schedule: Q01DX001 (ip), vehicle: saline
[10] = dose: 100.0 mg/kg/injection, schedule: Q01DX001 (ip), vehicle: saline with Tween-80
[11] = dose: 100.0 mg/kg/injection, schedule: Q04DX003 (ip), vehicle: saline with Tween-80
[12] = dose: 200.0 mg/kg/injection, schedule: Q01DX001 (ip), vehicle: saline with Tween-80
[13] = dose: 200.0 mg/kg/injection, schedule: Q04DX003 (ip), vehicle: saline with Tween-80
[14] = dose: 100.0 mg/kg/injection, schedule: Q04DX002 (ip), vehicle: saline with Tween-80
[15] = dose: 200.0 mg/kg/injection, schedule: Q04DX002 (ip), vehicle: saline with Tween-80
[16] = dose: 400.0 mg/kg/injection, schedule: Q01DX001 (ip), vehicle: saline with Tween-80

Measured: T/C

COc1ccc2c(c1)/C(=C/CCN(C)C)c1ccccc1S2
inactive: dose: 6.0 mg/kg/injection, schedule: Q01DX Z (ip), vehicle: methylcellulose (MC) 110 % of control | dose: 6.25 mg/kg/injection, schedule: Q01DX009 (ip), vehicle: carboxymethylcellulose (CMC) 97 % of control | dose: 12.0 mg/kg/injection, schedule: Q01DX Z (ip), vehicle: methylcellulose (MC) 114 % of control | dose: 12.5 mg/kg/injection, schedule: Q01DX001 (ip), vehicle: carboxymethylcellulose (CMC) 100 % of control | dose: 12.5 mg/kg/injection, schedule: Q01DX009 (ip), vehicle: carboxymethylcellulose (CMC) 108 % of control | dose: 12.5 mg/kg/injection, schedule: Q04DX003 (ip), vehicle: other 105 % of control | [1] 104 % of control | dose: 20.0 mg/kg/injection, schedule: Q01DX Z (ip), vehicle: methylcellulose (MC) 119 % of control | dose: 25.0 mg/kg/injection, schedule: Q01DX001 (ip), vehicle: carboxymethylcellulose (CMC) 100 % of control | dose: 25.0 mg/kg/injection, schedule: Q04DX003 (ip), vehicle: other 101 % of control | dose: 50.0 mg/kg/injection, schedule: Q01DX001 (ip), vehicle: carboxymethylcellulose (CMC) 114 % of control

O=C(NCCBr)Nc1ccc2c(c1)CCCC2
inactive: [2] 102 % of control | [3] 93 % of control | [4] 93 % of control

O=C(c1ccc2cc(Cl)c(Cl)cc2c1)C(Cl)Cl
inactive: dose: 25.0 mg/kg/injection, schedule: Q04DX002 (ip), vehicle: Klucel (hydroxypropylcellulose) (HPC) 90 % of control | dose: 50.0 mg/kg/injection, schedule: Q04DX002 (ip), vehicle: Klucel (hydroxypropylcellulose) (HPC) 108 % of control | dose: 100.0 mg/kg/injection, schedule: Q04DX002 (ip), vehicle: Klucel (hydroxypropylcellulose) (HPC) 93 % of control and 98 % of control

COc1ccc(N=Nc2nccs2)c(O)c1
inactive: dose: 50.0 mg/kg/injection, schedule: Q01DX009 (ip), vehicle: saline with Tween-80 102 % of control | [5] 98 % of control | [6] 109 % of control

Nc1nc2ncnc(N)c2nc1-c1ccc(N(CCO)CCO)cc1
inactive: [7] 104 % of control | [8] 95 % of control | [9] 100 % of control

Nc1ccc(C(F)(F)F)cc1[N+](=O)[O-]
inactive: dose: 100.0 mg/kg/injection, schedule: Q04DX002 (ip), vehicle: saline 118 % of control | dose: 200.0 mg/kg/injection, schedule: Q04DX002 (ip), vehicle: saline 103 % of control | dose: 400.0 mg/kg/injection, schedule: Q04DX002 (ip), vehicle: saline 107 % of control

CSc1nc2c(=O)[nH]cnc2n1C1OC(CO)C(O)C1O (configuration not stated)
inactive: [7] 97 % of control | [8] 111 % of control | [9] 103 % of control

Cc1c2ccccc2cc2[n+]1CCc1ccccc1-2
inactive: dose: 50.0 mg/kg/injection, schedule: Q04DX003 (ip), vehicle: saline with Tween-80 100 % of control | [10] 98 % of control | [11] 105 % of control | [12] 96 % of control | [13] 107 % of control

OC1(CCC2OCCO2)c2ccccc2-c2ccccc21
inactive: [10] 95 % of control | [5] 93 % of control | [14] 95 % of control and 100 % of control | [11] 96 % of control | [12] 90 % of control | [6] 96 % of control and 100 % of control | [15] 93 % of control and 102 % of control | [13] 96 % of control | [16] 93 % of control | dose: 400.0 mg/kg/injection, schedule: Q01DX009 (ip), vehicle: saline with Tween-80 96 % of control and 120 % of control | dose: 400.0 mg/kg/injection, schedule: Q04DX002 (ip), vehicle: saline with Tween-80 95 % of control | dose: 400.0 mg/kg/injection, schedule: Q04DX003 (ip), vehicle: saline with Tween-80 95 % of control

NNc1c(C(N)=O)c2c(N)ncnc2n1C1OC(CO)C(O)C1O (configuration not stated)
inactive: dose: 100.0 mg/kg/injection, schedule: Q01DX005 (ip), vehicle: saline 96 % of control | dose: 200.0 mg/kg/injection, schedule: Q01DX005 (ip), vehicle: saline 100 % of control

O=c1ccsc(=S)[nH]1
inactive: [10] 101 % of control | [12] 104 % of control | [16] 97 % of control

CC1=NCCO1
inactive: dose: 100.0 mg/kg/injection, schedule: Q04DX003 (ip), vehicle: saline 102 % of control | dose: 200.0 mg/kg/injection, schedule: Q04DX003 (ip), vehicle: saline 105 % of control | dose: 400.0 mg/kg/injection, schedule: Q04DX003 (ip), vehicle: saline 105 % of control

CCC(C)c1nc2c([nH]1)c(=O)n(C)c(=O)n2C (configuration not stated)
inactive: dose: 50.0 mg/kg/injection, schedule: Q01DX001 (ip), vehicle: saline 110 % of control | [7] 101 % of control | [8] 101 % of control | [9] 104 % of control

CCOC(=O)C[n+]1ccccc1/C=C/c1ccc(O)cc1
inactive: dose: 9.38 mg/kg/injection, schedule: Q01DX001 (ip), vehicle: other 101 % of control

CC1(/C=N\NC(N)=O)CC2C=CC1C2 (configuration not stated)
inactive: [2] 104 % of control | [3] 98 % of control

Cn1c2ccccc2c2nn3cnnc3nc21
inactive: [14] 108 % of control | [15] 120 % of control

COCCOC(=O)c1ccc(C(=N)N)cc1
inactive: [7] 106 % of control | [8] 100 % of control

O=C(Nc1cccc(C(=O)Nc2cccc(C3=NCCN3)c2)c1)Nc1cccc(C(=O)Nc2cccc(C3=NCCN3)c2)c1
inactive: [1] 96 % of control | dose: 30.0 mg/kg/injection, schedule: Q01DX Z (ip), vehicle: methylcellulose (MC) 96 % of control | dose: 60.0 mg/kg/injection, schedule: Q01DX Z (ip), vehicle: methylcellulose (MC) 94 % of control | dose: 120.0 mg/kg/injection, schedule: Q01DX Z (ip), vehicle: methylcellulose (MC) 98 % of control | dose: 125.0 mg/kg/injection, schedule: Q01DX Z (ip), vehicle: carboxymethylcellulose (CMC) 110 % of control | dose: 250.0 mg/kg/injection, schedule: Q01DX Z (ip), vehicle: carboxymethylcellulose (CMC) 105 % of control | dose: 500.0 mg/kg/injection, schedule: Q01DX Z (ip), vehicle: carboxymethylcellulose (CMC) 96 % of control

C=CCOc1cc(C)ccc1C
inactive: dose: 100.0 mg/kg/injection, schedule: Q01DX001 (ip), vehicle: carboxymethylcellulose (CMC) 98 % of control | dose: 200.0 mg/kg/injection, schedule: Q01DX001 (ip), vehicle: carboxymethylcellulose (CMC) 95 % of control | dose: 400.0 mg/kg/injection, schedule: Q01DX001 (ip), vehicle: carboxymethylcellulose (CMC) 98 % of control

Cc1[nH]nc(-c2cccnc2)c1N=NN1CCC(C(N)=O)CC1
inactive: dose: 75.0 mg/kg/injection, schedule: Q01DX001 (ip), vehicle: other 103 % of control

Cc1nc2c(=O)[nH]c(=O)[nH]c2[nH]c1=O
inactive: dose: 16.0 mg/kg/injection, schedule: Q01DX Z (ip), vehicle: methylcellulose (MC) 89 % of control | dose: 31.0 mg/kg/injection, schedule: Q01DX Z (ip), vehicle: methylcellulose (MC) 95 % of control | dose: 62.0 mg/kg/injection, schedule: Q01DX Z (ip), vehicle: methylcellulose (MC) 93 % of control | dose: 100.0 mg/kg/injection, schedule: Q01DX001 (ip), vehicle: other 96 % of control | dose: 100.0 mg/kg/injection, schedule: Q04DX003 (ip), vehicle: other 100 % of control | dose: 125.0 mg/kg/injection, schedule: Q01DX Z (ip), vehicle: methylcellulose (MC) 101 % of control | dose: 200.0 mg/kg/injection, schedule: Q01DX001 (ip), vehicle: other 102 % of control | dose: 200.0 mg/kg/injection, schedule: Q04DX003 (ip), vehicle: other 111 % of control | dose: 400.0 mg/kg/injection, schedule: Q01DX001 (ip), vehicle: other 102 % of control | dose: 400.0 mg/kg/injection, schedule: Q04DX003 (ip), vehicle: other 107 % of control

O=C(c1ccccc1)c1c2ccccc2c(Br)c2ccccc12
inactive: dose: 100.0 mg/kg/injection, schedule: Q01DX009 (ip), vehicle: Klucel (hydroxypropylcellulose) (HPC) 97 % of control | [2] 100 % of control | dose: 200.0 mg/kg/injection, schedule: Q01DX009 (ip), vehicle: Klucel (hydroxypropylcellulose) (HPC) 96 % of control | [3] 95 % of control | dose: 400.0 mg/kg/injection, schedule: Q01DX009 (ip), vehicle: Klucel (hydroxypropylcellulose) (HPC) 91 % of control | [4] 89 % of control
